In ChEMBL document CHEMBL6071153, “Design, synthesis, and evaluation of antitumor activity in Pseudolaric acid B Azole derivatives: Novel and potent angiogenesis inhibitor via regulation of the PI3K/AKT and MAPK mediated HIF-1/VEGF signaling pathway” (Eur J Med Chem, 2024):
Active and inactive are the calls of the source. No cut-off for these calls is given here.

How the values were obtained:
[1] = Inhibition of VEGFR mediated endocytosis in human SiHa cells incubated for 24 hrs under hypoxic condition by ELISA; format: cell-based
SiHa [2] = test: Cytotoxicity against human SiHa cells assessed as inhibition of cell growth incubated for 24 hrs under normoxic condition by MTT assay; format: functional, cell-based
[3] = Inhibition of HIF-1 transcriptional activity in human HCT-116 cells preincubated for 1 hr under normoxic condition followed by 24 hrs incubation under hypoxic condition by luciferase reporter assay; format: cell-based
[4] = Toxicity in Balb/c mouse xenografted with human SiHa cells assessed as reduction in body weight at 30 mg/kg,ip administration measured after 22 days; format: organism-based; conditions: in vivo, 528 h, time 22 day
[5] = Inhibition of PI3K/AKT/mTOR signalling pathway in human SiHa cells assessed as downregulation of JNK phosphorylation at 10 uM incubated for 24 hrs under hypoxic condition by Western blotting analysis; format: cell-based
SiHa [6] = test: Inhibition of VEGFR in human SiHa cells assessed as decrease in intracellular VEGFR protein expression at 10 uM incubated for 24 hrs under hypoxic condition by immunofluorescence staining based analysis relative to M2; format: cell-based
[7] = Toxicity in Balb/c mouse assessed as fatality at 50 mg/kg,ip administration for 1 week; format: organism-based; conditions: in vivo, 168 h, time 1 weeks
HUVEC [8] = test: Antiangiogenic activity against human HUVEC cells assessed as inhibition of blood vessel formation at 10 uM incubated for 4 hrs under hypoxic condition by fluorescence microscopic analysis; format: functional, cell-based
HUVEC [9] = test: Inhibition of cell migration in human HUVEC cells at 10 uM incubated for 48 hrs under hypoxic condition by microscopic analysis relative to PAB; format: functional
[10] = Toxicity in Balb/c mouse assessed as change in animal fur at 50 mg/kg,ip administration for 1 week; format: organism-based; conditions: in vivo, 168 h, time 1 weeks
SiHa [11] = test: Antitumor activity against human SiHa cells xenografted in Balb/c mouse assessed as reduction in tumor volume at 30 mg/kg,ip administration measured after 22 days; format: functional, organism-based; conditions: time 22.0 day
HUVEC [12] = test: Inhibition of cell migration in human HUVEC cells at 10 uM incubated for 48 hrs under hypoxic condition by microscopic analysis relative to M2; format: functional, cell-based
SiHa [13] = test: Antitumor activity against human SiHa cells xenografted in Balb/c mouse assessed as reduction in tumor growth at 30 mg/kg,ip administration measured after 22 days; format: functional, organism-based; conditions: time 22.0 day
SiHa [14] = test: Inhibition of hypoxia-induced HIF-1alpha accumulation in human SiHa cells at 10 uM incubated for 24 hrs under hypoxic condition by Western blotting analysis; format: functional, cell-based
SiHa [15] = test: Inhibition of hypoxia-induced HIF-1beta accumulation in human SiHa cells at 10 uM incubated for 24 hrs under hypoxic condition by Western blotting analysis; format: functional, cell-based
SiHa [16] = test: Antitumor activity against human SiHa cells xenografted in Balb/c mouse assessed as reduction in tumor weight at 30 mg/kg,ip administration measured after 22 days; format: functional, organism-based; conditions: time 22.0 day

SMILES	IC50 [1] [µM]	IC50 (SiHa [2]) [µM]	also measured
COC(=O)C1=CC[C@@]23CC[C@@H]([C@@](C)(/C=C/C=C(\C)C(=O)OCc4nnc(-c5ccccc5)o4)OC2=O)[C@@]3(OC(C)=O)CC1	> 5	> 30	–
OC1CCN(CCOc2cccc(Cn3nc(-c4nc(-c5ccc(OC(F)(F)F)cc5)no4)c4ccccc43)c2)CC1	–	–	IC50 [3]: 0.55 µM
COC(=O)C1=CC[C@@]23CC[C@@H]([C@@](C)(/C=C/C=C(\C)C(=O)OCCn4ncn(-c5ccc(OC)c(OC)c5)c4=O)OC2=O)[C@@]3(OC(C)=O)CC1	> 5	> 30	–
COC(=O)C1=CC[C@@]23CC[C@@H]([C@@](C)(/C=C/C=C(\C)C(=O)OCc4nnc(-c5ccc(OC)cc5)o4)OC2=O)[C@@]3(OC(C)=O)CC1	> 5	> 30	–
O=c1[nH]cc(F)c(=O)[nH]1 [FLUOROURACIL]	–	–	Activity [4]: Non-Toxic
COC(=O)C1=CC[C@@]23CC[C@@H]([C@@](C)(/C=C/C=C(\C)C(=O)OCc4cn(-c5ccc(Cl)cc5)nn4)OC2=O)[C@@]3(OC(C)=O)CC1	2.15	> 30	–
C[C@H]1[C@H](C)CC[C@]2(C(=O)OCCCn3ncn(-c4ccccc4)c3=O)CC[C@]3(C)C(=CC[C@@H]4[C@@]5(C)CCC(O)C(C)(C)[C@@H]5CC[C@]43C)[C@H]12 (stereo partly specified)	–	–	IC50 [3]: 36.9 µM
COC(=O)C1=CC[C@@]23CC[C@@H]([C@@](C)(/C=C/C=C(\C)C(=O)OCc4cn(-c5ccccc5)nn4)OC2=O)[C@@]3(OC(C)=O)CC1	> 5	> 30	–
COC(=O)C1=CC[C@@]23CC[C@@H]([C@@](C)(/C=C/C=C(\C)C(=O)OCc4cn(Cc5ccc(Cl)c(Cl)c5)nn4)OC2=O)[C@@]3(OC(C)=O)CC1	2.79	> 30	–
COC(=O)C1=CC[C@@]23CC[C@@H]([C@@](C)(/C=C/C=C(\C)C(=O)OCCn4ncn(-c5ccccc5)c4=O)OC2=O)[C@@]3(OC(C)=O)CC1	4.03	> 30	–
COC(=O)C1=CC[C@@]23CC[C@@H]([C@@](C)(/C=C/C=C(\C)C(=O)OCCn4ncn(-c5ccc(Cl)cc5)c4=O)OC2=O)[C@@]3(OC(C)=O)CC1	1.86	> 30	–
COC(=O)C1=CC[C@@]23CC[C@@H]([C@@](C)(/C=C/C=C(\C)C(=O)NCc4cn(-c5ccc(Cl)c(Cl)c5)nn4)OC2=O)[C@@]3(OC(C)=O)CC1	> 5	> 30	–
COC(=O)C1=CC[C@@]23CC[C@@H]([C@@](C)(/C=C/C=C(\C)C(=O)OCc4cn(Cc5cc(OC)c(OC)c(OC)c5)nn4)OC2=O)[C@@]3(OC(C)=O)CC1	2.3	> 30	–
COC(=O)C1=CC[C@@]23CC[C@@H]([C@@](C)(/C=C/C=C(\C)C(=O)OCCn4ncn(-c5ccc(Cl)c(Cl)c5)c4=O)OC2=O)[C@@]3(OC(C)=O)CC1	1.17	> 30	–
COC(=O)C1=CC[C@@]23CC[C@@H]([C@@](C)(/C=C/C=C(\C)C(=O)NCc4cn(-c5ccc(F)cc5)nn4)OC2=O)[C@@]3(OC(C)=O)CC1	4.14	> 30	–
COC(=O)C1=CC[C@@]23CC[C@@H]([C@@](C)(/C=C/C=C(\C)C(=O)OCc4nnc(-c5ccc(Cl)cc5)o4)OC2=O)[C@@]3(OC(C)=O)CC1	> 5	> 30	–
COC(=O)C1=CC[C@@]23CC[C@@H]([C@@](C)(/C=C/C=C(\C)C(=O)OCc4cn(Cc5ccc(Cl)cc5)nn4)OC2=O)[C@@]3(OC(C)=O)CC1	1.43	> 30	–
COC(=O)C1=CC[C@@]23CC[C@@H]([C@@](C)(/C=C/C=C(\C)C(=O)OCCn4ncn(-c5ccc(OC)cc5)c4=O)OC2=O)[C@@]3(OC(C)=O)CC1	> 5	> 30	–
COC(=O)C1=CC[C@@]23CC[C@@H]([C@@](C)(/C=C/C=C(\C)C(=O)OCc4cc(-c5ccc(OC)cc5)no4)OC2=O)[C@@]3(OC(C)=O)CC1	> 5	> 30	–
COC(=O)C1=CC[C@@]23CC[C@@H]([C@@](C)(/C=C/C=C(\C)C(=O)OCc4cn(Cc5ccc(F)cc5)nn4)OC2=O)[C@@]3(OC(C)=O)CC1	3.89	> 30	–
COC(=O)C1=CC[C@@]23CC[C@@H]([C@@](C)(/C=C/C=C(\C)C(=O)OCc4cc(-c5ccccc5)no4)OC2=O)[C@@]3(OC(C)=O)CC1	> 5	> 30	–

SMILES	IC50 [1] [µM]	IC50 (SiHa [2]) [µM]	also measured
COC(=O)C1=CC[C@@]23CC[C@@H]([C@@](C)(/C=C/C=C(\C)C(=O)OCC(=O)Nc4ccc(OC)cc4)OC2=O)[C@@]3(OC(C)=O)CC1	1.86	> 30	–
COC(=O)C1=CC[C@@]23CC[C@@H]([C@@](C)(/C=C/C=C(\C)C(=O)OCCn4ncn(-c5ccc(F)cc5)c4=O)OC2=O)[C@@]3(OC(C)=O)CC1	2.38	> 30	–
COC(=O)C1=CC[C@@]23CC[C@@H]([C@@](C)(/C=C/C=C(\C)C(=O)OCc4nc(-c5ccc(Cl)cc5)no4)OC2=O)[C@@]3(OC(C)=O)CC1	1.51	> 30	–
COC(=O)C1=CC[C@@]23CC[C@@H]([C@@](C)(/C=C/C=C(\C)C(=O)O)OC2=O)[C@@]3(OC(C)=O)CC1 [PSEUDOLARIC ACID B]	5.54	> 30	inhibition [5]: inactive; inhibition (SiHa [6]): Active; Activity [7]: Non-Toxic; Activity (HUVEC [8]): Active; inhibition at 10 µM (HUVEC [9]): 68.5%; Activity [4]: Non-Toxic; Activity [10]: Non-Toxic; Activity (SiHa [11]): Active; inhibition (HUVEC [12]): Active; Activity (SiHa [13]): Active; inhibition (SiHa [14]): Active; inhibition (SiHa [15]): Active; Activity (SiHa [16]): Active
CN1CCN(CCOc2cccc(Cn3nc(-c4nc(-c5ccc(OC(F)(F)F)cc5)no4)c4ccccc43)c2)CC1	–	–	IC50 [3]: 0.62 µM
COC(=O)C1=CC[C@@]23CC[C@@H]([C@@](C)(/C=C/C=C(\C)C(=O)NCc4cn(-c5ccc(OC)cc5)nn4)OC2=O)[C@@]3(OC(C)=O)CC1	5.06	> 30	–
COC(=O)C1=CC[C@@]23CC[C@@H]([C@@](C)(/C=C/C=C(\C)C(=O)OCC(=O)NCc4cn(-c5ccc(OC)cc5)nn4)OC2=O)[C@@]3(OC(C)=O)CC1	3.4	> 30	–
COC(=O)C1=CC[C@@]23CC[C@@H]([C@@](C)(/C=C/C=C(\C)C(=O)OCc4nc(-c5ccc(Cn6cncn6)cc5)no4)OC2=O)[C@@]3(OC(C)=O)CC1	> 5	> 30	–
COC(=O)C1=CC[C@@]23CC[C@@H]([C@@](C)(/C=C/C=C(\C)C(=O)NCc4cn(-c5ccc(Cl)cc5)nn4)OC2=O)[C@@]3(OC(C)=O)CC1	3.74	> 30	–
COC(=O)C1=CC[C@@]23CC[C@@H]([C@@](C)(/C=C/C=C(\C)C(=O)OCc4nc(-c5ccccc5)no4)OC2=O)[C@@]3(OC(C)=O)CC1	2	> 30	–
COC(=O)C1=CC[C@@]23CC[C@@H]([C@@](C)(/C=C/C=C(\C)C(=O)OCc4cn(Cc5ccccc5)nn4)OC2=O)[C@@]3(OC(C)=O)CC1	> 5	> 30	–
COC(=O)C1=CC[C@@]23CC[C@@H]([C@@](C)(/C=C/C=C(\C)C(=O)OCC(=O)Nc4ccccc4)OC2=O)[C@@]3(OC(C)=O)CC1	4.03	> 30	–
COC(=O)C1=CC[C@@]23CC[C@@H]([C@@](C)(/C=C/C=C(\C)C(=O)OCC(=O)NCc4cn(-c5ccccc5)nn4)OC2=O)[C@@]3(OC(C)=O)CC1	2.8	> 30	–
COC(=O)C1=CC[C@@]23CC[C@@H]([C@@](C)(/C=C/C=C(\C)C(=O)OCc4cc(-c5ccc(Cl)cc5)no4)OC2=O)[C@@]3(OC(C)=O)CC1	4.44	> 30	–
COC(=O)C1=CC[C@@]23CC[C@@H]([C@@](C)(/C=C/C=C(\C)C(=O)NCc4cn(-c5ccccc5)nn4)OC2=O)[C@@]3(OC(C)=O)CC1	2.91	> 30	–
COC(=O)C1=CC[C@@]23CC[C@@H]([C@@](C)(/C=C/C=C(\C)C(=O)OCc4nc(-c5ccc(Cl)c(Cl)c5)no4)OC2=O)[C@@]3(OC(C)=O)CC1	3.03	> 30	–
COC(=O)C1=CC[C@@]23CC[C@@H]([C@@](C)(/C=C/C=C(\C)C(=O)OCc4cn(Cc5ccc(OC)cc5)nn4)OC2=O)[C@@]3(OC(C)=O)CC1	1.75	> 30	–
COC(=O)C1=CC[C@@]23CC[C@@H]([C@@](C)(/C=C/C=C(\C)C(=O)OCc4cn(-c5ccc(OC)cc5)nn4)OC2=O)[C@@]3(OC(C)=O)CC1	2.18	> 30	–
COC(=O)C1=CC[C@@]23CC[C@@H]([C@@](C)(/C=C/C=C(\C)C(=O)OCC(=O)Nc4ccc(Cl)cc4)OC2=O)[C@@]3(OC(C)=O)CC1	4.38	> 30	–
COC(=O)C1=CC[C@@]23CC[C@@H]([C@@](C)(/C=C/C=C(\C)C(=O)OCc4nc(-c5ccc(OC)cc5)no4)OC2=O)[C@@]3(OC(C)=O)CC1	4.16	> 30	–
